Experiment [1] addresses T1, vitamin D receptor (full-length recombinant rat receptor) (Rattus norvegicus, UniProt P13053).
T1 construct: Full-length recombinant rat receptor was expressed in E. coli; His tag (C); made in house; host or cells: E. coli BL21(DE3) Codon Plus RIL
T1 sequence (P13053 1-423): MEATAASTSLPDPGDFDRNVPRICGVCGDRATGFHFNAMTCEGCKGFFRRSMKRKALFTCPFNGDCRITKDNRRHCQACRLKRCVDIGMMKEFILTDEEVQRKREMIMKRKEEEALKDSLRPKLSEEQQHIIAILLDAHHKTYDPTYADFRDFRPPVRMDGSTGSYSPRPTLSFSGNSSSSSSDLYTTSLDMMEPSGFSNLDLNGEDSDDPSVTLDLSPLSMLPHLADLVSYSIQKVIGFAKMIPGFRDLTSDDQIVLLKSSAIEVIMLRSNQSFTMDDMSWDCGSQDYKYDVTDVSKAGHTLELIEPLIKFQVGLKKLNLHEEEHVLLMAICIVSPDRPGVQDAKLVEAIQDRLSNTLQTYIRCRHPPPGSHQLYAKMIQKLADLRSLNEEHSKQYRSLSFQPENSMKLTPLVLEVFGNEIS
The experiment is described as follows: Vitamin D receptor competitive binding. As to conditions: for binding to the nuclear vitamin D receptor compared with 1,25(OH)2D3 (in words): competitive binding against 3H-1,25(OH)2D3, recombinant rat receptor; for Ki: read-out: Competitive VDR Binding (Ki). As to the method: Full-length recombinant rat receptor was expressed in E. coli BL21(DE3) Codon Plus RIL cells and purified to homogeneity using two different column chromatography systems. The first system was a nickel affinity resin that utilizes the C-terminal histidine tag on this protein. The protein that was eluted from this resin was further purified using ion exchange chromatography (S-Sepharose Fast Flow). Aliquots of the purified protein were quick frozen in liquid nitrogen and stored at −80° C. until use. For use in binding assays, the protein was diluted in TEDK50 (50 mM Tris, 1.5 mM EDTA, pH 7.4, 5 mM DTT, 150 mM KCl) with 0.1% Chaps detergent. The receptor protein and ligand concentration was optimized such that no more than 20% of the added radiolabeled ligand was bound to the receptor.
Unlabeled ligands were dissolved in ethanol and the concentrations determined using UV spectrophotometry (1,25(OH)2D3: molar extinction coefficient=18,200 and λmax=265 nm; Analogs: molar extinction coefficient=42,000 and λmax=252 nm). Radiolabeled ligand (^3H-1,25(OH)2D3, ˜159 Ci/mmole) was added in ethanol at a final concentration of 1 nM.
Radiolabeled and unlabeled ligands were added to 100 mcl of the diluted protein at a final ethanol concentration of ≦10%, mixed and incubated overnight on ice to reach binding equilibrium. The following day, 100 mcl of hydroxylapatite slurry (50%) was added to each tube and mixed at 10-minute intervals for 30 minutes. The hydroxylapatite was collected by centrifugation and then washed three times with Tris-EDTA buffer (50 mM Tris, 1.5 mM EDTA, pH 7.4) containing 0.5% Titron X-100. After the final wash, the pellets were transferred to scintillation vials containing 4 ml of Biosafe II scintillation cocktail, mixed and placed in a scintillation counter. Total binding was determined from the tubes containing only radiolabeled ligand.

The test system of the next experiment is HL-60 cells. Briefly: HL-60 differentiation (nitro blue tetrazolium reduction). The experiment is classed as cell-based, human. As to conditions: for EC50: Homo sapiens, HL-60; for HL-60 Differentiation Relative Activity: relative to the native hormone 1,25(OH)2D3 in the same assay, (value for native hormone)/(value for working example), >1 = more active; for HL-60 cell differentiation, times more potent than the native hormone: fold MORE potent/active than 1,25(OH)2D3. As to the method:
The study drugs were dissolved in ethanol and the concentrations determined using UV spectrophotometry. Serial dilutions were prepared so that a range of drug concentrations could be tested without changing the final concentration of ethanol (≦0.2%) present in the cell cultures.
Human promyelocytic leukemia (HL60) cells were grown in RPMI-1640 medium containing 10% fetal bovine serum. The cells were incubated at 37° C. in the presence of 5% CO2.
HL60 cells were plated at 1.2×10^5 cells/ml. Eighteen hours after plating, cells in duplicate were treated with drug. Four days later, the cells were harvested and a nitro blue tetrazolium reduction assay was performed (Collins et al., 1979; J. Exp. Med. 149:969-974). The percentage of differentiated cells was determined by counting a total of 200 cells and recording the number that contained intracellular black-blue formazan deposits. Verification of differentiation to monocytic cells was determined by measuring phagocytic activity (data not shown).

In experiment [2] the test system is 24-hydroxylase (24OHase) gene promoter. Briefly: In vitro transcription assay (24-hydroxylase promoter-luciferase in ROS 17/2.8 bone cells). The class given is cell-based, rat. As to conditions: for EC50: Rattus norvegicus; for 24OHase Transcription Relative Activity: relative to the native hormone 1,25(OH)2D3 in the same assay, (value for native hormone)/(value for working example), >1 = more active. The method, then: Transcription activity was measured in ROS 17/2.8 (bone) cells that were stably transfected with a 24-hydroxylase (24OHase) gene promoter upstream of a luciferase reporter gene (Arbour et al., 1998). Cells were given a range of doses. Sixteen hours after dosing the cells were harvested and luciferase activities were measured using a luminometer. RLU=relative luciferase units.

The subject of experiment [3] is Sprague-Dawley rats. The experiment is described as follows: Bone calcium mobilization (serum calcium). The experiment is classed as in vivo, rat. As to conditions: for bone calcium mobilization activity compared with 1,25(OH)2D3 (in words): intraperitoneal doses. As to the method:
(§1) Male, weanling Sprague-Dawley rats were placed on Diet 11 (0.47% Ca) diet+AEK oil for one week followed by Diet 11 (0.02% Ca)+AEK oil for 3 weeks. The rats were then switched to a diet containing 0.47% Ca for one week followed by two weeks on a diet containing 0.02% Ca. Dose administration began during the last week on 0.02% calcium diet. Four consecutive intraperitoneal doses were given approximately 24 hours apart. Twenty-four hours after the last dose, blood was collected from the severed neck and the concentration of serum calcium determined as a measure of bone calcium mobilization. The first 10 cm of the intestine was also collected for intestinal calcium transport analysis using the everted gut sac method.

Experiment [4] relates to Sprague-Dawley rats. The experiment is described as follows: Intestinal calcium transport (everted gut sac method). As to conditions: for intestinal calcium transport activity compared with 1,25(OH)2D3 (in words) / net intestinal calcium transport, serosal to mucosal ratio: rat; for intestinal calcium transport activity compared with 1,25(OH)2D3 (in words): intraperitoneal doses; for net intestinal calcium transport, serosal to mucosal ratio: relative to vehicle. The class given is in vivo, rat. As to the method: as §1

“Also recorded” adds a separate entry of the source.

With `C=C1[C@H](O)CC(=C/C=C2\CCC[C@@]3(C)C2CC[C@@H]3[C@H](C)[C@H](C)CCC(C)(C)O)C[C@H]1O` (stereo partly drawn) [SAG-2, (20R,22R)-2-methylene-19-nor-22-methyl-1α,25-dihydroxyvitamin D3], in experiment [1], the “binding to the nuclear vitamin D receptor compared with 1,25(OH)2D3 (in words)” value (shortened to “binding … compared with 1,25(OH)2D3 (in words)”) is “less effective than 1,25-(OH)2D3; also recorded: bind the vitamin D receptor” and the Ki amounted to 0.2 nM. For the same compound, in experiment [1] (competitive binding, fold LESS affinity than native hormone), the “affinity for the nuclear vitamin D receptor, times less than 1,25(OH)2D3” value is reported as “approximately 4 times”. Also, in the experiment with HL-60 cells, the response was half-maximal at 9 nM (EC50) and the “HL-60 Differentiation Relative Activity” value worked out at 0.3. In addition, in experiment [2], the midpoint of the response, the EC50, lay at 6 nM and the “24OHase Transcription Relative Activity” value was determined as 0.05. The “Net Bone Ca2+ Mobilization” value in the experiment on Sprague-Dawley rats [3] (at 260 pM dosage) is −0.1^7 mg/dL. Besides, the “bone calcium mobilization activity compared with 1,25(OH)2D3 (in words)” value with Sprague-Dawley rats [3] (rat) was “markedly lower than 1,25-(OH)2D3; also recorded: no net calcemic activity on bone; also recorded: very little to no activity in mobilizing calcium from bone stores; also recorded: little or no ability to mobilize bone calcium, even at extremely high concentrations”. Besides, the “Net Intestinal Ca2+ Transport (serosal Ca2+ to mucosal Ca2+ ratio, S/M)” value in the experiment on Sprague-Dawley rats [4] (at 260 pM dosage) was 0.4^7. In addition, the “intestinal calcium transport activity compared with 1,25(OH)2D3 (in words)” value with Sprague-Dawley rats [4] is “markedly lower than 1,25-(OH)2D3; also recorded: less potency compared to the native hormone; also recorded: little ability to increase transport, except at extremely high concentrations”.

On to `C=C1C(O)CC(=CC=C2CCCC3(C)C2CCC3[C@@H](C)CCCC(C)(C)O)CC1O` (single isomer, unassigned) [20R isomer of 2MD, 2-methylene-19-nor-1α,25-dihydroxyvitamin D3, reference compound], for which the “HL-60 cell differentiation, times more potent than the native hormone” value in the experiment with HL-60 cells came to 0.95 times. Moreover, the “net bone calcium mobilization activity” value in the experiment on Sprague-Dawley rats [3] (rat) came out at 4.5 mg/dL. For the same compound, the “net intestinal calcium transport, serosal to mucosal ratio” value with Sprague-Dawley rats [4] is reported as −0.6.

`C=C1[C@H](O)CC(=C/C=C2\CCC[C@@]3(C)C2CC[C@@H]3[C@@H](C)[C@H](C)CCC(C)(C)O)C[C@H]1O` (stereo partly drawn) [AGS-1, (20S,22R)-2-methylene-19-nor-22-methyl-1α,25-dihydroxyvitamin D3]: in experiment [1], the “binding … compared with 1,25(OH)2D3 (in words)” value is “approximately equally effective as 1,25-(OH)2D3; also recorded: same affinity as 1,25(OH)2D3; also recorded: bind the vitamin D receptor” and the Ki was 0.07 nM. In the experiment with HL-60 cells, the “cell differentiation activity (in words)” value is on record as “relatively high cell differentiation activity”, the response was half-maximal at 0.01 nM (EC50) and the “HL-60 Differentiation Relative Activity” value was 300. In experiment [2], the EC50 is 0.008 nM and the “24OHase Transcription Relative Activity” value was determined as 38. Also, the “24-hydroxylase transcription activity compared with 1,25(OH)2D3 (in words)” value in experiment [2] (bone cells) was “relatively high 24-hydroxylase transcription activity”. In addition, the “transcription of the 24-hydroxylase gene, times more potent than 1,25(OH)2D3” value in experiment [2] (bone cells, fold MORE potent) is reported as ~40 times. Further, the “Net Bone Ca2+ Mobilization” value in the experiment with Sprague-Dawley rats [3] (at 780 pM dosage) turned out to be 5.3 mg/dL. In the experiment on Sprague-Dawley rats [3] (rat), the “bone calcium mobilization activity compared with 1,25(OH)2D3 (in words)” value is reported as “more potent than 1,25-(OH)2D3; also recorded: does show activity with regard to net bone calcium mobilization; also recorded: more efficacious; also recorded: significantly higher bone calcium mobilization activity”. In addition, in the experiment on Sprague-Dawley rats [4] (at 780 pM dosage), the “Net Intestinal Ca2+ Transport (serosal Ca2+ to mucosal Ca2+ ratio, S/M)” value was found to be 9.9. For the same compound, in the experiment with Sprague-Dawley rats [4], the “intestinal calcium transport activity compared with 1,25(OH)2D3 (in words)” value was “more potent than 1,25-(OH)2D3; also recorded: higher potency in promoting intestinal calcium transport than the native hormone; also recorded: significantly higher” and the “net intestinal calcium transport, serosal to mucosal ratio” value was 4.3.

Turning to `C=C1C(O)CC(=CC=C2CCCC3(C)C2CCC3[C@@H](C)CCCC(C)(C)O)CC1O` (single isomer, unassigned) [20S isomer of 2MD, 2-methylene-19-nor-1α,25-dihydroxyvitamin D3, reference compound], the “HL-60 cell differentiation, times more potent than the native hormone” value in the experiment on HL-60 cells is given as 27 times. In the experiment on Sprague-Dawley rats [3] (rat), the “net bone calcium mobilization activity” value was 9.3 mg/dL. The “net intestinal calcium transport, serosal to mucosal ratio” value with Sprague-Dawley rats [4] is recorded as −0.9.

Consider `C=C1[C@H](O)CC(=C/C=C2\CCC[C@@]3(C)C2CC[C@@H]3[C@@H](C)[C@@H](C)CCC(C)(C)O)C[C@H]1O` (stereo partly drawn) [AGS-2, (20S,22S)-2-methylene-19-nor-22-methyl-1α,25-dihydroxyvitamin D3], for which, in experiment [1], the “binding … compared with 1,25(OH)2D3 (in words)” value is given as “lower affinity relative to 1,25-(OH)2D3; also recorded: lower affinity than 1,25(OH)2D3; also recorded: bind the vitamin D receptor” and the Ki worked out at 8 nM. In addition, in the experiment with HL-60 cells, the “cell differentiation activity (in words)” value is “relatively high cell differentiation activity”, the EC50 was found to be 20 nM and the “HL-60 Differentiation Relative Activity” value is recorded as 0.15. Moreover, in experiment [2], a half-maximal response (EC50) required 3 nM and the “24OHase Transcription Relative Activity” value turned out to be 0.1. Further, the “24-hydroxylase transcription activity compared with 1,25(OH)2D3 (in words)” value in experiment [2] (bone cells) is reported as “relatively high 24-hydroxylase transcription activity”. The “transcription of the 24-hydroxylase gene, times less potent than 1,25(OH)2D3” value in experiment [2] (rat osteosarcoma cells, fold LESS potent) is reported as “about 10 times”. Besides, in the experiment with Sprague-Dawley rats [3] (at 780 pM dosage), the “Net Bone Ca2+ Mobilization” value is listed as 0 mg/dL. For the same compound, the “bone calcium mobilization activity compared with 1,25(OH)2D3 (in words)” value with Sprague-Dawley rats [3] (rat) was “much reduced ability to mobilize calcium from bone compared to 1,25-(OH)2D3; also recorded: no net calcemic activity on bone; also recorded: essentially no ability to mobilize bone calcium except at extremely high concentrations”. Besides, the “bone calcium mobilization, times less potent than the native hormone” value with Sprague-Dawley rats [3] (rat, fold LESS potent in releasing bone calcium stores) is “approximately 50 times”. Besides, the “Net Intestinal Ca2+ Transport (serosal Ca2+ to mucosal Ca2+ ratio, S/M)” value in the experiment on Sprague-Dawley rats [4] (at 780 pM dosage) came to 4.3. For the same compound, the “intestinal calcium transport activity compared with 1,25(OH)2D3 (in words)” value in the experiment on Sprague-Dawley rats [4] was “significant net intestinal calcium transport; also recorded: comparable or slightly higher intestinal calcium transport compared to 1,25(OH)2D3”.

Take `C=C1C(O)CC(=CC=C2CCCC3(C)C2CCC3[C@H](C)[C@H](C)CCC(C)(C)O)CC1O` (stereo partly drawn) [SAG-2, (20R,22R)-2-methylene-19-nor-22-methyl-1α,25-dihydroxyvitamin D3]: in experiment [2] (bone cells), the “24-hydroxylase transcription activity compared with 1,25(OH)2D3 (in words)” value is “unexpectedly low in comparison to the native hormone”.

Values taken from US8664206B2, “Diastereomers of 2-methylene-19-nor-22-methyl-1α,25-dihydroxyvitamin D3” (Wisconsin Alumni Research Foundation, priority 2010, dated 2014).
